Data taken from patent publication US20050158425A1, “Thin mouthfeel calcium-fortified beverage containing calcium lactate gluconate citrate” (PURAC BIOCHEM BV, priority 2003, published 2005).

How the values were obtained:
[1] = Dissolution rate of calcium-fortified beverages by conductivity; format: physicochemical; details: 20° C.
Procedure: The dissolution rates of calcium lactate gluconate (ratio Ca lactate:Ca gluconate 80/20) and calcium lactate gluconate citrate (in a ratio calcium lactate:calcium gluconate:calcium citrate of 12.7:47.8:39.5) beverages were determined by measuring the conductivity and calculating the dissolution rate from the conductivity indices. Said beverages contained 10, and 30% R.D.I respectively in water at 20° C., 30% in apple juice at 20° C. and 10% in cranberry juice at 20° C.

[2] = Hygroscopicity of powdered samples; format: physicochemical; details: for water pick up (hygroscopicity): 20° C., 60% relative humidity, 21 days, powdered sample; for state of powdered sample (hygroscopicity): 35° C., 70% relative humidity
Procedure: The hygroscopicities of powdered samples of calcium lactate gluconate citrate (in a ratio calcium lactate:calcium gluconate:calcium citrate of 12.7:47.8:39.5) and calcium lactate gluconate (lactate/gluconate ratio 20/80) were measured at 20° C. at 60% relative humidity and at 35° C. at 70% relative humidity. At 20° C. at 60% relative humidity both samples hardly pick up any water (about 1%) for 21 days.

Row | Structure (SMILES) | Dissolution time in seconds (at conductivity 99.5) ([1]; Apple juice (30% RDI)) | Dissolution time in seconds (at conductivity 99.5) ([1]; Cranberry juice (10% RDI)) | Dissolution time in seconds (at conductivity 99.5) ([1]; Water (10% RDI)) | water pick up (hygroscopicity) [2] | state of powdered sample (hygroscopicity) [2] | hygroscopicity ([2]; at increased temperatures)
1 | CC(O)C(=O)[O-].O=C([O-])[C@H](O)[C@@H](O)[C@H](O)[C@H](O)CO.[Ca+2] [Calcium lactate gluconate, calcium lactate gluconate] | 25 s | 34 s | 35 s |  |  | 
2 | CC(O)C(=O)O.O=C(O)[C@H](O)[C@@H](O)[C@H](O)[C@H](O)CO.O=C([O-])CC(O)(CC(=O)[O-])C(=O)O.[Ca+2] [calcium lactate gluconate citrate] | 30 s | 27 s | 23 s | about 1% | still had the powdered structure and appeared unchanged after 20 days | very low hygroscopicity
3 | CC(O)C(=O)[O-].O=C([O-])[C@H](O)[C@@H](O)[C@H](O)[C@H](O)CO.[Ca+2] [calcium lactate gluconate (20/80), calcium lactate gluconate] |  |  |  | about 1% | completely liquefied within 2 days | 
